Patent US5330897A, “Sialic acid binding lectin of protozoan origin” (South Alabama Medical Science Foundation, priority 1992, dated 1994)

Key:
[1] = tested on: T. mobilensis hemolysis of erythrocytes; assay: Whole organism hemolysis assay, inhibition; assay type: cell-based, Tritrichomonas mobilensis
Excerpt: Tritrichomonas mobilensis, an enteric parasite of squirrel monkeys, adheres readily to isolated monkey intestinal epithelial cells and agglutinates human erythrocytes in vitro. These activities are mediated by a sialic acid binding lectin. Hemagglutination by either parasites or purified lectin is inhibited by N-acetylneuraminic acid and anti-lectin monoclonal antibody (MAB), but not by 2,3-dehydro-2-desoxy-N-acetylneuraminic acid, a neuraminidase inhibitor. T. mobilensis hemolyzes erythrocytes in a modification of a previously published whole organism hemolysis assay. Hemolysis is inhibited by N-acetylneuraminic acid, 2,3-dehydro-2-desoxy-N-acetylneuraminic acid, anti-lectin MAB, T. mobilensis lectin and other sialic acid binding lectins, fetuin, and colominic acid, but not by asialofetuin, or leupeptin. Desialated erythrocytes are neither agglutinated nor hemolyzed.

[2] = tested on: sialidase from T. mobilensis; assay: Inhibition of sialidase activity associated with the affinity column; assay type: biochemical, Tritrichomonas mobilensis; settings: 1 mM inhibitor
Experimental: Free sialic acid release from bovine submaxillary mucin was used to determine enzymatic activity. Sample to be tested (total volume 50 μl) was mixed with 250 μl of 0.1M acetate, pH 5.0 and 200 μl of 1% mucin in water. After incubation at 37° for 30 minutes, 0.5 ml of 5% phosphotungstic acid in 2.5N HCl was added with vortexing. Assay tubes were centrifuged at 2000×g for 10 minutes, and 250 μl of the supernatant was assayed for sialic acid by the thiobarbituric acid method (Warren, J. Biol. Chem. 234:1971-1975 (1959)). Activity was calculated as μmoles of sialic acid released during a 30 min incubation at 37°. Controls were identical samples precipitated by phosphotungstic acid before the 37° incubation.
The sialidase(s) from T. mobilensis can be separated from HA activity by carefully controlling elution conditions from the affinity column. […] Affinity purified lectin is not inhibited at inhibitor concentrations up to 100 mM, while the sialidase activity associated with the column is inhibited by 50% at 1 mM inhibitor. […] Alternatively, they may simply reflect the affinity of the sialidase for mucin.

T. mobilensis lectin = assay: Inhibition of T. mobilensis lectin-mediated hemagglutination; assay type: biochemical, Tritrichomonas mobilensis; settings: for Minimal Inhibitory Conc.: 2 units of hemagglutinin; for Inhibition of HA activity of purified lectin (in words): concentrations up to 100 mM where stated
[3] = tested on: live T. mobilensis flagellates; assay: Inhibition of hemagglutination by live T. mobilensis; settings: sugars up to 100 mM; normal erythrocytes, room temperature
[4] = tested on: T. mobilensis attachment to CHO cells; assay: Carbohydrate inhibition of T. mobilensis adherence to CHO cells; assay type: cell-based, Tritrichomonas mobilensis; settings: concentration-dependent; other carbohydrates up to 100 mM
Experimental: The kinetics of T. mobilensis-CHO trypsin-dispersed cell interactions were studied in a cell suspension system. Equal volumes (100 μl) of 10^5 CHO cells and 10^6 (unless otherwise specified) trichomonads resuspended in serum-free M199 were mixed in microfuge tubes and incubated at room temperature (unless otherwise stated) with gentle agitation. Periodically the percentage of CHO cells with adherent flagellates was determined microscopically in wet-mount preparations, 100 CHO cells being examined in each preparation.

[5] = tested on: T. augusta cell-free lysate hemagglutinin; assay: Inhibition of HA activity of T. augusta cell-free lysate; assay type: biochemical, Tritrichomonas augusta
[6] = tested on: T. mobilensis cell-free lysate hemagglutinin; assay: Inhibition of HA activity of T. mobilensis cell-free lysate; assay type: biochemical, Tritrichomonas mobilensis
[7] = tested on: T. foetus cell-free lysate hemagglutinin; assay: Inhibition of HA activity of T. foetus cell-free lysate; assay type: biochemical, Tritrichomonas foetus
live cells of T. foetus = assay: Inhibition of HA by live cells of T. foetus; assay type: cell-based, Tritrichomonas foetus

| Molecule | Inhibition of hemolysis [1] | Minimal Inhibitory Conc. (T. mobilensis lectin; carbohydrates) [mM] | Inhibition of HA activity of purified lectin (in words) (T. mobilensis lectin) | Inhibition of hemagglutination by live T. mobilensis [3] | Inhibition of attachment of parasites to CHO cells [4] | also measured |
| --- | --- | --- | --- | --- | --- | --- |
| CC(=O)N[C@H]1[C@H]([C@H](O)[C@H](O)CO)OC(C(=O)O)=C[C@@H]1O [2,3-dehydro-2-deoxy-N-acetylneuraminic acid] | inhibited | > 100 | not inhibited | – | – | Inhibition of sialidase activity [2]: 50% |
| CC(=O)N[C@H]1[C@H]([C@H](O)[C@H](O)CO)OC(O)(C(=O)O)C[C@@H]1O (stereo partly shown) [N-acetylneuraminic acid] | inhibited | 2.0 | inhibited | inhibited | inhibited | Conc. required to inhibit 2 HA units, T. augusta ([5]; carbohydrates, […]): 10 µg/mL; Conc. required to inhibit 2 HA units, T. mobilensis ([6]; carbohydrates, […]): 5 µg/mL; Conc. required to inhibit 2 HA units, T. foetus ([7]; carbohydrates, […]): > 200 µg/mL |
| O=C(CO)N[C@H]1[C@H]([C@H](O)[C@H](O)CO)OC(O)(C(=O)O)C[C@@H]1O (stereo partly shown) [N-glycolylneuraminic acid] | – | 8.3 | – | inhibited | – | – |
| N-acetylneuraminic acid-lactose [sialyllactose] | – | – | – | inhibited | inhibited | – |
| Fetuin: sialoconjugate (sialoglycoprotein) (protein, UniProt P12763 19-359, looked up) Alpha-2-HS-glycoprotein: IPLDPVAGYKEPACDDPDTEQAALAAVDYINKHLPRGYKHTLNQIDSVKVWPRRPTGEVYDIEIDTLETTCHVLDPTPLANCSVRQQTQHAVEGDCDIHVLKQDGQFSVLFTKCDSSPDSAEDVRKLCPDCPLLAPLNDSRVVHAVEVALATFNAESNGSYLQLVEISRAQFVPLPVSVSVEFAVAATDCIAKEVVDPTKCNLLAEKQYGFCKGSVIQKALGGEDVRVTCTLFQTQPVIPQPQPDGAEAEAPSAVPDAAGPTPSAAGPPVASVVVGPSVVAVPLPLHRAHYDLRHTFSGVASVESSSGEAFHVGKTPIVGQPSIPGGPVRLCPGRIRYFKI | inhibited | – | – | – | – | Conc. required to inhibit 2 HA units, T. augusta ([5]; sialoglycoproteins): 100 µg/mL; Minimal Inhibitory Conc. (T. mobilensis lectin; glycoproteins or proteins): 8.33 µg/mL; Conc. required to inhibit 2 HA units, T. mobilensis ([6]; sialoglycoproteins): 100 µg/mL; Conc. required to Inhibit 2 HA Units (live cells of T. foetus): 60 µg/mL; Conc. required to inhibit 2 HA units, T. foetus ([7]; sialoglycoproteins): 60 µg/mL |
